Tests used:
glutathione = conditions: supplementation, two weeks; cited from earlier work
[1] = tested on: volunteers who experience all symptoms of the alcohol reaction; assay: Studies in individuals (Example 5): symptoms of the alcohol reaction after two standard alcohol beverages; format: in vivo, human; conditions: Subject 4; 1500 mg daily for two weeks + dose one hour before two standard alcohol beverages
Experimental: In order to evaluate the efficacy of certain embodiments of the invention, subjects took various forms of the supplements daily for two weeks. The subjects then consumed two standard alcohol beverages and their symptoms were evaluated. One hour prior to drinking the alcohol beverages, the subjects also consumed another dose of the formulation. Overt physical symptoms and self-reported physical symptoms were used as assessments for the alcohol reaction. These experimental tests include eleven subjects. All experimental subjects were unpaid volunteers who experience all symptoms of the alcohol reaction. The following symptoms were assessed: facial redness, heart rate, self-evaluated body temperature, headache, nausea, and general physical discomfort. These are symptoms of the alcohol reaction that have all been directly linked with an increase in blood acetaldehyde.

NAD = conditions: nicotinamide supplementation; one study; cited from earlier work

Row | SMILES | increase levels of glutathione (glutathione) [%] | facial redness [1] | heart rate [1] | raising NAD concentrations (NAD) [fold]
1 | O=C1O[C@H]([C@@H](O)CO)C(O)=C1O [Vitamin C] | 50 | – | – | –
2 | NC(=O)c1cccnc1 [nicotinamide] | – | reductions | reductions | 24
